# Molecular target: HSET full length protein (Homo sapiens (Human), UniProt Q9BW19)
# Assay: HSET ADP-Glo Assay S - 3 μM ATP
# Type: biochemical
# Conditions: 5 nM HSET, 70 μg/mL microtubule, 80 min at rt, read-out: COMBINED HSET ADP GLO IC50
# In short: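 ADP-Glo luminescence read-out: ATPase reaction at 3 μM ATP, 80 min at room temperature, after a 10 min compound preincubation. Enzyme was full-length human HSET at 5 nM, stimulated by 70 μg/mL paclitaxel-stabilised bovine microtubules in HEPES pH 6.8 buffer with MgCl2, EGTA, Triton X-100 and DTT.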
# HSET full length protein, sequence (Q9BW19 whole entry): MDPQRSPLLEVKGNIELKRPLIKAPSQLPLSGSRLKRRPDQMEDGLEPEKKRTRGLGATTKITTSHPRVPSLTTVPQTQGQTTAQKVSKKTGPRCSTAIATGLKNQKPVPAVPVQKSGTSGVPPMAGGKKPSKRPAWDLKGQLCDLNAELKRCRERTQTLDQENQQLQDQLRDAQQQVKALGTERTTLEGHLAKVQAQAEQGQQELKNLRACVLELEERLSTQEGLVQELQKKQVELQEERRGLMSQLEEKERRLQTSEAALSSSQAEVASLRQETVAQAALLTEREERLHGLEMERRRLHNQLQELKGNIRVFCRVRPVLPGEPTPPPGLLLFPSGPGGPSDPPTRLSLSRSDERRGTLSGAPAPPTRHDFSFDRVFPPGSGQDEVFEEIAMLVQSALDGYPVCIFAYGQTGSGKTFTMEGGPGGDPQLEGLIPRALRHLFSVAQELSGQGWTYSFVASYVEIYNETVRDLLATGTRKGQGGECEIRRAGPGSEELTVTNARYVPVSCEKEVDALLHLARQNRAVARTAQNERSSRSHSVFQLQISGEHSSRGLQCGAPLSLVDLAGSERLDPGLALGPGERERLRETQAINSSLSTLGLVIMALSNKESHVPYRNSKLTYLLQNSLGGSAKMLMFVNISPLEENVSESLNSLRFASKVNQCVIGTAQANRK
row,IC50,Compound
1,44 nM,"Cc1nc(-c2ccc3ccnc(NC4CN(C(=O)Nc5nc(C)c(C(C)(C)C)s5)C4)c3c2)no1 [Example 232, N-(5-(tert-butyl)-4-methylthiazol-2-yl)-3-((7-(5-methyl-1,2,4-oxadiazol-3-yl)isoquinolin-1-yl)amino)azetidine-1-carboxamide]"
2,6740 nM,"CCCCCc1cc(NC(=O)[C@@H]2C[C@H](Nc3nccc4ccc(-c5noc(C)n5)cc34)CN2C)nn1C [Example 238, (2S,4S)-1-methyl-4-((7-(5-methyl-1,2,4-oxadiazol-3-yl)isoquinolin-1-yl)amino)-N-(1-methyl-5-pentyl-1 H-pyrazol-3-yl)pyrrolidine-2-carboxamide]"
3,11 nM,"CCCOC(=O)c1sc(C(=O)N2CC[C@H](Nc3nccc4ccc(-c5noc(C)n5)cc34)C2)nc1C [Example 243, Propyl (S)-4-methyl-2-(3-((7-(5-methyl-1,2,4-oxadiazol-3-yl)isoquinolin-1-yl)amino)pyrrolidine-1-carbonyl)thiazole-5-carboxylate]"
4,608 nM,"CCCOC(=O)c1sc(C(=O)N2CC[C@@H](Nc3nccc4ccc(-c5noc(C)n5)cc34)C2)nc1C [Example 244, Propyl (R)-4-methyl-2-(3-((7-(5-methyl-1,2,4-oxadiazol-3-yl)isoquinolin-1-yl)amino)pyrrolidine-1-carbonyl)thiazole-5-carboxylate]"
5,7470 nM,"CCCOC(=O)c1cc(C(=O)N2CC[C@H](Nc3nccc4ccc(-c5noc(C)n5)cc34)C2)nn1C [Example 245, Propyl (S)-1-methyl-3-(3-((7-(5-methyl-1,2,4-oxadiazol-3-yl)isoquinolin-1-yl)amino)pyrrolidine-1-carbonyl)-1 H-pyrazole-5-carboxylate]"
6,1740 nM,"Cc1nc(-c2ccc3ccnc(N[C@H]4CCN(C(=O)c5nc(C)c(C(C)(C)C)s5)C4)c3c2)no1 [Example 246, (S)-(5-(tert-butyl)-4-methylthiazol-2-yl)(3-((7-(5-methyl-1,2,4-oxadiazol-3-yl)isoquinolin-1-yl)amino)pyrrolidin-1-yl)methanone]"
7,13600 nM,"Cc1nc(-c2ccc3ccnc(N[C@H]4CCN(C(=O)c5cc(C6CC6)n(C)n5)C4)c3c2)no1 [Example 247, (S)-(5-cyclopropyl-1-methyl-1 H-pyrazol-3-yl)(3-((7-(5-methyl-1,2,4-oxadiazol-3-yl)isoquinolin-1-yl)amino)pyrrolidin-1-yl)methanone]"
8,4140 nM,"Cc1nc(-c2ccc3ccnc(N[C@H]4CCN(C(=O)c5cc(-c6ccccc6)n(C)n5)C4)c3c2)no1 [Example 248, (S)-(3-((7-(5-methyl-1,2,4-oxadiazol-3-yl)isoquinolin-1-yl)amino)pyrrolidin-1-yl)(1-methyl-5-phenyl-1 H-pyrazol-3-yl)methanone]"
9,14500 nM,"Cc1nc(-c2ccc3ccnc(N[C@H]4CCN(C(=O)c5cc(C(C)C)n(C)n5)C4)c3c2)no1 [Example 249, (S)-(5-isopropyl-1-methyl-1 H-pyrazol-3-yl)(3-((7-(5-methyl-1,2,4-oxadiazol-3-yl)isoquinolin-1-yl)amino)pyrrolidin-1-yl)methanone]"
10,9460 nM,"Cc1nc(-c2ccc3ccnc(N[C@H]4CCN(C(=O)c5cnc[nH]5)C4)c3c2)no1 [Example 250, (S)-(1 H-imidazol-5-yl)(3-((7-(5-methyl-1,2,4-oxadiazol-3-yl)isoquinolin-1-yl)amino)pyrrolidin-1-yl)methanone]"
11,5620 nM,"Cc1cc(C(=O)N2CC[C@H](Nc3nccc4ccc(-c5noc(C)n5)cc34)C2)no1 [Example 251, (5-Methylisoxazol-3-yl)-[(3S)-3-[[7-(5-methyl-1,2,4-oxadiazol-3-yl)-1-isoquinolyl]amino]pyrrolidin-1-yl]methanone]"

# Further lines, the compound ahead of its results:
row,Compound,IC50
1,"Cc1nc(-c2ccc3ccnc(NC4CN(C(=O)Nc5nc(C)c(C(=O)OC(C)(C)C)s5)C4)c3c2)no1 [Example 230, tert-Butyl 4-methyl-2-[[3-[[7-(5-methyl-1,2,4-oxadiazol-3-yl)-1-isoquinolyl]amino]azetidine-1-carbonyl]amino]thiazole-5-carboxylate]",2 nM
2,"Cc1nc(-c2ccc3ccnc(NC4CN(C(=O)N(C)c5nc(C)c(C(=O)OC(C)(C)C)s5)C4)c3c2)no1 [Example 231, tert-Butyl 4-methyl-2-[methyl-[3-[[7-(5-methyl-1,2,4-oxadiazol-3-yl)-1-isoquinolyl]amino]azetidine-1-carbonyl]amino]thiazole-5-carboxylate]",5 nM
3,"CCCOC(=O)c1sc(N(C)C(=O)CCNC(=O)c2cc(Cl)cc(-c3noc(C)n3)c2)nc1C [Example 233, Propyl 2-(3-(3-chloro-5-(5-methyl-1,2,4-oxadiazol-3-yl)benzamido)-N-methylpropanamido)-4-methylthiazole-5-carboxylate]",30 nM
4,"CCCOC(=O)c1sc(NC(=O)[C@@H]2C[C@H](NC(=O)c3cccc(-c4noc(C)n4)c3)CN2C)nc1C [Example 234, Propyl 4-methyl-2-((2S,4S)-1-methyl-4-(3-(5-methyl-1,2,4-oxadiazol-3-yl)benzamido)pyrrolidine-2-carboxamido)thiazole-5-carboxylate]",2100 nM
5,"CCCOC(=O)c1sc(NC(=O)[C@H]2C[C@@H](NC(=O)c3cccc(-c4noc(C)n4)c3)CN2C)nc1C [Example 235, Propyl 4-methyl-2-((2R,4R)-1-methyl-4-(3-(5-methyl-1,2,4-oxadiazol-3-yl)benzamido)pyrrolidine-2-carboxamido)thiazole-5-carboxylate]",6780 nM
6,"Cc1nc(-c2ccc3ccnc(N[C@H]4C[C@@H](C(=O)Nc5nc(C)c(C(C)(C)C)s5)N(C)C4)c3c2)no1 [Example 236, (2S,4S)-N-(5-(tert-butyl)-4-methylthiazol-2-yl)-1-methyl-4-((7-(5-methyl-1,2,4-oxadiazol-3-yl)isoquinolin-1-yl)amino)pyrrolidine-2-carboxamide]",2840 nM
7,"CCCOC(=O)c1sc(NC(=O)[C@@H]2C[C@H](Nc3nccc4ccc(-c5noc(C)n5)cc34)CN2C)nc1C [Example 237, Propyl 4-methyl-2-((2S,4S)-1-methyl-4-((7-(5-methyl-1,2,4-oxadiazol-3-yl)isoquinolin-1-yl)amino)pyrrolidine-2-carboxamido)thiazole-5-carboxylate]",100 nM
8,"CCCOC(=O)c1sc(NC(=O)[C@@H]2C[C@H](Nc3nccc4ccc(-c5noc(C)n5)cc34)CN2)nc1C [Example 239, Propyl 4-methyl-2-((2S,4S)-4-((7-(5-methyl-1,2,4-oxadiazol-3-yl)isoquinolin-1-yl)amino)pyrrolidine-2-carboxamido)thiazole-5-carboxylate]",119 nM
9,"CCCOC(=O)c1sc(C(=O)N2CC[C@H](NC(=O)c3cccc(-c4noc(C)n4)c3)C2)nc1C [Example 240, Propyl (S)-4-methyl-2-(3-(3-(5-methyl-1,2,4-oxadiazol-3-yl)benzamido)pyrrolidine-1-carbonyl)thiazole-5-carboxylate]",98 nM
10,"CCCOC(=O)c1sc(C(=O)N2CC[C@H](NC(=O)c3cccc(-c4nnn(C)n4)c3)C2)nc1C [Example 242, Propyl 4-methyl-2-[(3S)-3-[[3-(2-methyltetrazol-5-yl)benzoyl]amino]pyrrolidine-1-carbonyl]thiazole-5-carboxylate]",30 nM
